Experimental data published in patent US5760213A, “Immunoactivating agent” (Tayca Corporation, priority 1995, dated 1998).

Tests used:
rats = settings: oral administration to rats, cited from earlier work
Sarcoma 180 cancer cells = assay: Determination of Cancer Growth Inhibitory Effect (Sarcoma 180 solid cancer in ICR mice); assay type: in vivo; settings: Sarcoma 180 subcutaneous graft, 30 mg/kg per day intraperitoneally for 10 days, tumor weight after 5 weeks
Description: (§1) First, 1 wt % aqueous solutions of the respective polysaccharides obtained in the above Preparation Examples were prepared. A cationic ion exchange resin was added to each solution to convert the counter ions of carboxyl group of glucuronic acid residue in the polysaccharide into hydrogen ions, and then the solution was neutralized with sodium hydroxide to replace the counter ions with sodium ions, then passed through a 0.2 μm-opening membrane filter and freeze-dried. The resulting polysaccharide preparations were subjected to the following tests.

C3H/He mice = assay: Observation for anaphylaxis-like reaction and sudden death in MDP-primed mice; assay type: in vivo; settings: 100 μg/0.2 ml intravenously, 4 hours after MDP
Description: as §1
(§2) These mice were left under observation for anaphylaxis-like reaction and sudden death. After 90 minutes from the injection, blood was collected from the surviving mice to determine TNF and IL-6 activities in the serum. TNF activity was calculated on the basis of the ratio of activity of the actinomycin D-treated L-929 cells to that of rHuTNF (human recombination TNF) used as control, with the killing action of the said L-929 cells being taken as index, and indicated by ng/ml. In the case of IL-6 activity, the IL-6 dependent MH60.BSF2 cell growth stimulating action was taken as index, and the IL-6 activity was calculated on the basis of the calibration curves obtained from the test of IL-6 and control rHuIL-6, and indicated by U/ml.

TNF = assay: Measurement of Tumor Necrosis Factor (TNF) inducibility; assay type: in vivo; settings: serum 90 minutes after injection, 100 μg/0.2 ml intravenously, MDP-primed C3H/He mice; average value ± standard deviation
Description: as §1, §2

[1] = system: myeloma cell strain NS-1/Z; assay: Determination of Cytotoxic T Cell (CTL) Inducibility; assay type: in vivo, BALB/c mouse (target cells); C3H mice (effector cells); settings: 20 mg/kg/day, subcutaneous, four times, relative to physiological saline control
Description: as §1
The following test was conducted on the C3H mice and BALB/c mice which are different in H-2 haplotype.
The spleen lymphocytes (2×10^7) of the BALB/c mice were immunized in the abdominal cavities of the C3H mice (4 mice per group: N=4). Each of the test specimens shown in Table 5 was given subcutaneously to the back of each of the said C3H mice at a dose of 50 mg/kg or 20 mg/kg, once a day, four times in all, from the day before immunization till 2 days after immunization. As control, physiological saline was used instead of the test specimens. After 9 days, the spleen lymphocyte suspension was collected from the C3H mice. This lymphocyte suspension contained the cytotoxic T cells (hereinafter referred to as effector cells and abbreviated as E). Then, 10^4 cells of myeloma cell strain NS-1/Z (hereinafter abbreviated as T) derived from the BALB/c mouse into which β-galactosidase (β-gal) of Escherichia coli had been introduced, were mixed as target cells with the effector cells so that the E/T ratio would become 30, 60 or 120, and the mixture was kept in 0.2 ml of a medium RPMI-1640 at 37° C. for 4 hours. The activity of β-gal released into the supernatant by destruction of the target cells was measured, and the cytotoxicity by CTL was calculated from the following equation. [formula] A: released β-gal activity B: naturally released β-gal activity (enzyme release observed when no effector cells are present)
C: overall β-gal activity (T used is dissolved in 0.0425% Triton-X100 and the overall enzyme activity is measured.) [formula]

IL-6 = assay: Measurement of Interleukin (IL-6) inducibility; assay type: in vivo; settings: serum 90 minutes after injection, 100 μg/0.2 ml intravenously, MDP-primed C3H/He mice; average value ± standard deviation
Description: as §1, §2

O=P1(N(CCCl)CCCl)NCCCO1 (stereo not shown) [Cyclophosphide]
LD50 (female) (rats; female): 118 mg/kg | LD50 (male) (rats; male): 100 mg/kg

Lentinan
Cancer cell growth inhibition percentage (Sarcoma 180 cancer cells): 100%

Schizophyllan
Anaphylaxis-like reaction (C3H/He mice): 0/3 | Sudden death (C3H/He mice): 0/3 | TNF (TNF): 0 ± 0 ng/mL | Immunoactivating activity, E/T = 30 ([1]; E/T = 30): 5.5 | Immunoactivating activity, E/T = 60 ([1]; E/T = 60): 2.0 | Immunoactivating activity, E/T = 120 ([1]; E/T = 120): 1.7 | IL-6 (IL-6): 14.1 ± 2.2 U/ml
